2 molecules from ChEMBL document CHEMBL5653615 (J Biol Chem, 2013) can be followed below.

In assay [1] the target is T1, Dual specificity tyrosine-phosphorylation-regulated kinase 4 (Homo sapiens) (UniProt Q9NR20).
T1 sequence (whole entry): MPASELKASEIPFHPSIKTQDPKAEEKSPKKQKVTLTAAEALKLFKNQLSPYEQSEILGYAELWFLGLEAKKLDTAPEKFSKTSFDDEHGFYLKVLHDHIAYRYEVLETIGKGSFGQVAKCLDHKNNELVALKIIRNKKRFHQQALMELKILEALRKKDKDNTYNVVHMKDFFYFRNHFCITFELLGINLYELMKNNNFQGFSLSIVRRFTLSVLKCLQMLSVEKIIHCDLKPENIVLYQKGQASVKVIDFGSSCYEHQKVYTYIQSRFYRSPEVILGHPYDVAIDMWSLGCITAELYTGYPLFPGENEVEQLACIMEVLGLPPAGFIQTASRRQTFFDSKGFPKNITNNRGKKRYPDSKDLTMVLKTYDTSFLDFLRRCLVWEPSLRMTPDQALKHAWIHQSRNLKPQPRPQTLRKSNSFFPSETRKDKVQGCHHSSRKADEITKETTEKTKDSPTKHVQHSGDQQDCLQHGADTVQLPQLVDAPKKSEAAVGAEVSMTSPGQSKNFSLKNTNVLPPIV
In words: Inhibition of human DYRK4 at 18.6 nM by HotSpot assay relative to control.

Assay [2] addresses Fibroblast growth factor receptor 1 (Homo sapiens) (UniProt P11362). The assay is described as follows: Inhibition of human FGFR1 at 18.6 nM by HotSpot assay relative to control.
For assay [3], the target named is Fibroblast growth factor receptor 2 (Homo sapiens) (UniProt P21802). The assay is described as follows: Inhibition of human FGFR2 at 18.6 nM by HotSpot assay relative to control.
The target of assay [4] is Vascular endothelial growth factor receptor 2 (Homo sapiens) (UniProt P35968). The assay is described as follows: Inhibition of human KDR at 18.6 nM by HotSpot assay relative to control.
For assay [5], the target named is T2, MAP/microtubule affinity-regulating kinase 4 (Homo sapiens) (UniProt Q96L34).
T2 sequence (whole entry): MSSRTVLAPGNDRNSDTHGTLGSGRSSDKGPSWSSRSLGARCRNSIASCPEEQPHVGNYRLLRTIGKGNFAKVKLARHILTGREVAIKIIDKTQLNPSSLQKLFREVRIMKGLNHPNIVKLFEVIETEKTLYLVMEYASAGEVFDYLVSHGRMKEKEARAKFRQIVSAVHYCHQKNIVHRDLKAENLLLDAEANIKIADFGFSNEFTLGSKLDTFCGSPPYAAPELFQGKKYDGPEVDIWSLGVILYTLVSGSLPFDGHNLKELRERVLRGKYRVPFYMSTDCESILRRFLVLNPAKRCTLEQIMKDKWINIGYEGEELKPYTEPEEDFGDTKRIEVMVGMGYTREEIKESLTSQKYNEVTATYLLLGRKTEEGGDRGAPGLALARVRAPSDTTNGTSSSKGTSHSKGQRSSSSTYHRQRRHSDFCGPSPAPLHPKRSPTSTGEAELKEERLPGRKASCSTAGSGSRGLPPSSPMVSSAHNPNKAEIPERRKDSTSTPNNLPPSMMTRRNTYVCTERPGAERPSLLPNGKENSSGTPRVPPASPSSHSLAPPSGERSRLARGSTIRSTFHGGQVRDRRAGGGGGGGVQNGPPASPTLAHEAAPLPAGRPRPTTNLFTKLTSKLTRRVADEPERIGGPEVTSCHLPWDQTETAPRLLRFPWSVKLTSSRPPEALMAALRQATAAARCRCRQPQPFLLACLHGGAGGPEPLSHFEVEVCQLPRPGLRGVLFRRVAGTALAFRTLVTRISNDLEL
In words: Inhibition of human MARK4 at 18.6 nM by HotSpot assay relative to control.

Assay [6] addresses Calcium/calmodulin-dependent protein kinase type 1 (Homo sapiens) (UniProt Q14012). The assay is described as follows: Inhibition of human CAMK1a at 1.82 nM by HotSpot assay relative to control.
For assay [7], the target named is Ephrin type-A receptor 4 (Homo sapiens) (UniProt P54764). In words: Inhibition of human EPHA4 at 1.82 nM by HotSpot assay relative to control.
Assay [8] has as its target T3, cGMP-dependent protein kinase 1 (Homo sapiens) (UniProt Q13976).
T3 sequence (whole entry): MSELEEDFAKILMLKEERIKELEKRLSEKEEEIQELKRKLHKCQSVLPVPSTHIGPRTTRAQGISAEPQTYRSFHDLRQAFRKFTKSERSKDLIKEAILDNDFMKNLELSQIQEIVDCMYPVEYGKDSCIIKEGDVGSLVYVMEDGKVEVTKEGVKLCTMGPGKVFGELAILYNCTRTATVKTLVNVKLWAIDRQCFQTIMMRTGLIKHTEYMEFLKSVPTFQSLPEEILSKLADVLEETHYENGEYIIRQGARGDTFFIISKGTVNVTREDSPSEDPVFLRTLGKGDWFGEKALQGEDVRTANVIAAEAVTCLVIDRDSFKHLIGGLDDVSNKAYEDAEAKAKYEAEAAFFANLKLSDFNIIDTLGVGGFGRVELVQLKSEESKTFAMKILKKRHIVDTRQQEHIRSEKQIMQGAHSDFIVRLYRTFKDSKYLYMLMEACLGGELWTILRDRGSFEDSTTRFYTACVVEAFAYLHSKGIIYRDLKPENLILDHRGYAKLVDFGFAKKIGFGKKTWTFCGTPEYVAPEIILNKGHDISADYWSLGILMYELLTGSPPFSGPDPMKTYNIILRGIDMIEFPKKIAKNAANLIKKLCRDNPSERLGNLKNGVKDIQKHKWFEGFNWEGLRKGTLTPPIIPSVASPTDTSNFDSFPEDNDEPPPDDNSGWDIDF
The assay is described as follows: Inhibition of human PKG1a at 1.82 nM by HotSpot assay relative to control.

Assay [9] has as its target Serine/threonine-protein kinase 33 (Homo sapiens) (UniProt Q9BYT3). The assay is described as follows: Inhibition of human STK33 at 1.82 nM by HotSpot assay relative to control.
For a further assay, the species on record is Homo sapiens. In words: Inhibition of human TAO1 at 1.82 nM by HotSpot assay relative to control.
Assay [10] addresses Death-associated protein kinase 3 (Homo sapiens) (UniProt O43293). In words: Inhibition of human DAPK3 at 1.82 nM by HotSpot assay relative to control.
Assay [11] concerns the target Mitogen-activated protein kinase kinase kinase 7 (Homo sapiens) (UniProt O43318). The conditions noted are these: dose 1.82 nM.
Description: Inhibition of human TAK1 at 1.82 nM by HotSpot assay relative to control

Chain of Vascular endothelial growth factor receptor 2 (Homo sapiens) (P35968 whole entry): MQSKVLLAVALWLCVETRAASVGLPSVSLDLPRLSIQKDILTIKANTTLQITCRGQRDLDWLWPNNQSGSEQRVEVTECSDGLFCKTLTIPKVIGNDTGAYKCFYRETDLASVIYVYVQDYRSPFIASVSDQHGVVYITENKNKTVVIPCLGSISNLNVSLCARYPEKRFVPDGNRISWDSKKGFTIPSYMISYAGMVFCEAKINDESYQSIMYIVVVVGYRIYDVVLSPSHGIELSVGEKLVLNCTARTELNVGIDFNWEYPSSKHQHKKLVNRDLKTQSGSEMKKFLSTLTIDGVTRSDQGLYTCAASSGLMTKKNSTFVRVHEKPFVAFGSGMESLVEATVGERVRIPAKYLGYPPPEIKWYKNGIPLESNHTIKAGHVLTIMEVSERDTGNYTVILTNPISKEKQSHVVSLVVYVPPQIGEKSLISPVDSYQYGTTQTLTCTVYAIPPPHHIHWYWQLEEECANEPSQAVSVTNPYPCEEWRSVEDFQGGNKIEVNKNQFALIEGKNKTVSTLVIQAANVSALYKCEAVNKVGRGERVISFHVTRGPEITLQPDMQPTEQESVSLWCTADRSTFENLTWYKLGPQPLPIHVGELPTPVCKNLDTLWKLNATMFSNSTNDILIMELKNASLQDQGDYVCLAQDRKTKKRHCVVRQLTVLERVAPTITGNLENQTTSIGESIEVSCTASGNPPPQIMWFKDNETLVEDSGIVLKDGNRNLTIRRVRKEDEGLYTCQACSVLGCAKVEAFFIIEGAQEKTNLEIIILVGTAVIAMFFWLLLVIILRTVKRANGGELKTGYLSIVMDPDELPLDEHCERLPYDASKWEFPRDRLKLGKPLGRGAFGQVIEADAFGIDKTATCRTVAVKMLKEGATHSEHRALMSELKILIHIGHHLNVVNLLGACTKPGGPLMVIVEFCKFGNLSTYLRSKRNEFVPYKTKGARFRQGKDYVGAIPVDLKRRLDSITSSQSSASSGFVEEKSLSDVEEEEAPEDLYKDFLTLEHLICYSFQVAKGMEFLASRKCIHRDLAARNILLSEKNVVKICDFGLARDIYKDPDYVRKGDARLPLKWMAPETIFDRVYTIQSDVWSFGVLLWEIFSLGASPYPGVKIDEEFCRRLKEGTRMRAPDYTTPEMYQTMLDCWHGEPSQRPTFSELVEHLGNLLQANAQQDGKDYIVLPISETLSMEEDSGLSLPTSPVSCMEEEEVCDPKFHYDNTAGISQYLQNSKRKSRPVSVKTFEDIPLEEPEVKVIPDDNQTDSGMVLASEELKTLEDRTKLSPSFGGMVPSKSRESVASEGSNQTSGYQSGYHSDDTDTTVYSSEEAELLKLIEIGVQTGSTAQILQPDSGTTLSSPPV
Chain of Calcium/calmodulin-dependent protein kinase type 1 (Homo sapiens) (Q14012 whole entry, looked up): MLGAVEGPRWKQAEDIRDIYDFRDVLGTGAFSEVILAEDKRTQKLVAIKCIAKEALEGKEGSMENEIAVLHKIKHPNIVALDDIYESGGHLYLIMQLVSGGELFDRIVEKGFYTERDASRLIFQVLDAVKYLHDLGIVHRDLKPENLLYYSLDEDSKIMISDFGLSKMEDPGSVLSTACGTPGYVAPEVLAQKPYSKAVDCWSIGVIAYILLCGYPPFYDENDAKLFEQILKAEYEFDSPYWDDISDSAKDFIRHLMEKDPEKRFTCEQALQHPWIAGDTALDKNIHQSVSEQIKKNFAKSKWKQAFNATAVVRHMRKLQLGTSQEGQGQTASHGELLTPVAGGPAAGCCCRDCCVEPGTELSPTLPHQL
Chain of Mitogen-activated protein kinase kinase kinase 7 (Homo sapiens) (O43318 whole entry, looked up): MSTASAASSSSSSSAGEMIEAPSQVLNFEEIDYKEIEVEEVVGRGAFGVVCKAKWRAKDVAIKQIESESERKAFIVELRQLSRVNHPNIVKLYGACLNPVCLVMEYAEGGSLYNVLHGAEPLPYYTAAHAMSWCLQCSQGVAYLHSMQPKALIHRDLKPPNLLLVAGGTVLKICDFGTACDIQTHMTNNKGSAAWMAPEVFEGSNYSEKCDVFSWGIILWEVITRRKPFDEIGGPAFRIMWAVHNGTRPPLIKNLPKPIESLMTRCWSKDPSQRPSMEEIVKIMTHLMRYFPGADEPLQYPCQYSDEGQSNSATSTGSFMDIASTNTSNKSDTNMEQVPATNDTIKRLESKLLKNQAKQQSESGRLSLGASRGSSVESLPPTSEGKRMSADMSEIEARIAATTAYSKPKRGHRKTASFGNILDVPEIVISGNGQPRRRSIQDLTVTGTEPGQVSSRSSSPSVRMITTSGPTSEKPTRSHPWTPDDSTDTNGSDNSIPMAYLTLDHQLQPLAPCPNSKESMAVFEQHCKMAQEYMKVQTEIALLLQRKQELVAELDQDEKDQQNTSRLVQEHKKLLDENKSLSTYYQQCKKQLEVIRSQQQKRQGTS
Chain of Ephrin type-A receptor 4 (Homo sapiens) (P54764 whole entry): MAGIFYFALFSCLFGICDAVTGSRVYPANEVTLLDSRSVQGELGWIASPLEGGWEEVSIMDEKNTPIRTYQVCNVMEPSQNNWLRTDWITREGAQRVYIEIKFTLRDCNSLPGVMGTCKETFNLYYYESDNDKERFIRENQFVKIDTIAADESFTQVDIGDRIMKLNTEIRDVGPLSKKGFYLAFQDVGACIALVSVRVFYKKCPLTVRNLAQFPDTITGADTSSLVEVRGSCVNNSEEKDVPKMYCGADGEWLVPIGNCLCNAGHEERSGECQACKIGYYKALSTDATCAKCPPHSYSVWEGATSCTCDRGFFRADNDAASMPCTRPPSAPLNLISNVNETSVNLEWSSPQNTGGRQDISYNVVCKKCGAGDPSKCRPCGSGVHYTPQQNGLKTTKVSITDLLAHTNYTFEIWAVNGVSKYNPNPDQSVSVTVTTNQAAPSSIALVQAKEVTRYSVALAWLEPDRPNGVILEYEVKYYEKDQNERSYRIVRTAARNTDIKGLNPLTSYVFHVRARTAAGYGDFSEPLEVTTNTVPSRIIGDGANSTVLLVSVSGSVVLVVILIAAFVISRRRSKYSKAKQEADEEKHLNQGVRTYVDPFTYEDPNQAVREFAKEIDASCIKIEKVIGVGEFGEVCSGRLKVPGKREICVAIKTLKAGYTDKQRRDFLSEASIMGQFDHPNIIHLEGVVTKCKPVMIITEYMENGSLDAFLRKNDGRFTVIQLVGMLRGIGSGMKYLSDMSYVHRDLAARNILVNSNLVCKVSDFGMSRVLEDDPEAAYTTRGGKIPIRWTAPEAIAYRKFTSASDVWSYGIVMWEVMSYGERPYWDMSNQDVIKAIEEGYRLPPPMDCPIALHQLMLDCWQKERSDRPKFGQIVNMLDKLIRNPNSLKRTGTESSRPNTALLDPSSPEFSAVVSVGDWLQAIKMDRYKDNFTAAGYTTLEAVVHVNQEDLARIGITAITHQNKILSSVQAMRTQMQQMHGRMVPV
Chain of Serine/threonine-protein kinase 33 (Homo sapiens) (Q9BYT3 whole entry, looked up): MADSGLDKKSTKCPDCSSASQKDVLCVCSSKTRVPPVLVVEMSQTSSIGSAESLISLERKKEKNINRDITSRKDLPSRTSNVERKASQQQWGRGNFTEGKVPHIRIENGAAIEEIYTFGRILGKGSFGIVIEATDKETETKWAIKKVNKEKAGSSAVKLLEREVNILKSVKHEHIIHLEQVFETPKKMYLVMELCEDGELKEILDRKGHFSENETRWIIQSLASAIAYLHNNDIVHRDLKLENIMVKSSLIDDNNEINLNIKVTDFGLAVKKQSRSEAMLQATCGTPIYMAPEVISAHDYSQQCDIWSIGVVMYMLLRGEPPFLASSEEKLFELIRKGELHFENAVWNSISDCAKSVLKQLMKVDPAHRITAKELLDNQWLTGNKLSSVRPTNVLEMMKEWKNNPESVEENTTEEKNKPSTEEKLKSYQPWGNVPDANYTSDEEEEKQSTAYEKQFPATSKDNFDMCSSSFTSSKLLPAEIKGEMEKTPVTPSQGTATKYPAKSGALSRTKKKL
Chain of Death-associated protein kinase 3 (Homo sapiens) (O43293 whole entry, looked up): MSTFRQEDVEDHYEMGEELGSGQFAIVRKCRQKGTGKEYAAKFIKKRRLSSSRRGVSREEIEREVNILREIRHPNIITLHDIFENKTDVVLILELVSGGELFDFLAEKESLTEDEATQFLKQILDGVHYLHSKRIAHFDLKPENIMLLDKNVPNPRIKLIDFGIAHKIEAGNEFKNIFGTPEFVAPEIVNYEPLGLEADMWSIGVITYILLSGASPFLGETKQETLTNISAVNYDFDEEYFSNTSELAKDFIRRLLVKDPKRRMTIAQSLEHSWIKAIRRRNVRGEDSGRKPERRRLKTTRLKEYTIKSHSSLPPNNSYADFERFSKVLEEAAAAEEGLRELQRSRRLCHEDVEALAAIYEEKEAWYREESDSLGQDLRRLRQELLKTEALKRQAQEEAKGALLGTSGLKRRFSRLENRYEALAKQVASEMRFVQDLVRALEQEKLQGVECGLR

Take `C[C@]1(O)C[C@@H](c2nc(-c3ccc4ccc(-c5ccccc5)nc4c3)c3c(N)nccn32)C1`: the inhibition – broadly, the change of the read-out against control, counted positive when it falls – is -1.52% in assay [1]; -8.13% in assay [2]; -3.25% in [3]; -3.85% in assay [4]; 7.12% in assay [5].
As to `C[C@@]1(C(=O)Nc2ccc(F)nc2)CCCN1c1nc(Nc2cc(C3CC3)n[nH]2)c2cccn2n1`, the inhibition was 2.2% in assay [6]; -4.4% in assay [7]; 5.76% in assay [8]; 1.95% in assay [9]; 1.46% in the assay filed under Homo sapiens; 10.5% in [10]. For the same molecule, the inhibition in [11] came out at 3.35%.
